Here are results for 10 molecules from US4210749A, “Substituted 1,2,4,5-tetrahydro-3H,3 benzazepines” (priority 1979, dated 1980).

Structures can show the parent of a compound that is named as a salt. Bounds are passed on as bounds.

A short description of data set [1]: Narcotic antagonism I.P., Table IV. The format is in vivo.
A short description of data set [2]: I.P. symptomatology (highest tolerated dose, median lethal dose), Table IV. Type of data set: in vivo. The following applies: in vivo, ip; for MTD: read-out: HTD (highest tolerated dose).
Data set [3] can be described thus: Mouse tail stimulation (MST), Table IV. Further details: unit not given here. The format is in vivo. The following applies: S.C.
In data set [4] the test system is sciatic block. The data set is described as follows: Local anesthetic sciatic block, Table IV. Type of data set: in vivo. The following applies: 1%.
Data set [5] is described as follows: Analgesic activity, hot plate method. Type of data set: in vivo. A general note: In hot-plate and tail-flick tests a longer latency is read as antinociception.
Data set [6] in a line: Analgesic activity, writhing method. The format is in vivo. A general note: An intraperitoneal irritant provokes the stretching counted in writhing tests.
Data set [7] is described as follows: in vivo.
Data set [8] can be described thus: in vivo. This is another data set of the same source.

The term LD50 denotes the dose at which mortality reaches 50%. Take `COc1ccc2c(c1)CCNCC2` [Example 1, 7-Methoxy-1,2,4,5-tetrahydro-3H,3-benzazepine]: in data set [1], the “Narcotic Antagonism” value is recorded as “Negative”. In addition, in data set [2], the LD50 came to 60 mg/kg and the MTD turned out to be 3 mg/kg. In addition, the “MST (mouse tail stimulation)” value in data set [3] is more than 3. Moreover, the “Local Anesthetic Sciatic Block” value in data set [4] is “Positive”.

As for `CC(=O)Oc1ccc2c(c1)CCN(CC=C(C)C)CC2` [Example 5, 7-Acetoxy-3-(3,3-dimethylallyl)-1,2,4,5-tetrahydro-3H,3-benzazepine hydrochloride], in data set [1], the “Narcotic Antagonism” value was “Positive”. In data set [2], the LD50 was approximately 200 mg/kg and the MTD is approximately 10 mg/kg. In addition, the “MST (mouse tail stimulation)” value in data set [3] is recorded as more than 30. Moreover, the “Local Anesthetic Sciatic Block” value in data set [4] is “Positive”.

In general, ED50 refers to the dose at which the effect has come halfway, by size or by number of responders. With `CCN1CCc2ccc(OC)cc2CC1` [Example 20, 3-Ethyl-7-methoxy-1,2,4,5-tetrahydro-3H,3-benzazepine], the “Narcotic Antagonism” value in data set [1] is “Negative”. The ED50 is 15 mg/kg in data set [5] (ip), more than 125 mg/kg in data set [5] (po), more than 125 mg/kg in data set [6] (po) and more than 32 mg/kg in data set [6] (sc). This molecule also returned an LD50 in data set [2] of 60 mg/kg. Moreover, the MTD in data set [2] was 1 mg/kg. The “Local Anesthetic Sciatic Block” value in data set [4] is recorded as “Positive”.

The NOAEL is the highest tested level that showed no adverse finding. As to `Oc1ccc2c(c1)CCN(CCc1ccccc1)CC2` [Example 25, 7-Hydroxy-3-phenethyl-1,2,4,5-tetrahydro-3H,3-benzazepine], in data set [7] (po), the LD50 is more than 1000 mg/kg. For the same molecule, the 50% effective dose (ED50) in data set [5] (ip) is 26 mg/kg; in data set [5] (po), more than 178 mg/kg; in data set [6] (po) it was more than 178 mg/kg. In data set [8] (po), this molecule had an NOAEL of 178 mg/kg.

Take `Oc1ccc2c(c1)CCN(CC=Cc1ccccc1)CC2` [Example 29, 7-Hydroxy-3-(3-phenylallyl)-1,2,4,5-tetrahydro-3H,3-benzazepine]: in data set [7] (po), the LD50 is more than 1000 mg/kg. Further, the ED50 in data set [5] (ip) was 230 mg/kg; in data set [5] (po), more than 1000 mg/kg; in data set [6] (po), 210 mg/kg. Also, the values for the NOAEL in data set [8] (ip) and in data set [8] (po) were 300 mg/kg and 1000 mg/kg, respectively.

Turning to `CC(C)=CCN1CCc2ccc(O)cc2CC1C` (stereo not shown) [Example 34, 3-(3,3-Dimethylallyl)-8-hydroxy-2-methyl-1,2,4,5-tetrahydro-3H,3-benzazepine hydrochloride], in data set [1], the “Narcotic Antagonism” value is “Positive”. In addition, in data set [2], the LD50 amounted to 60 mg/kg and the MTD turned out to be 10 mg/kg. Also, the “MST (mouse tail stimulation)” value in data set [3] is given as more than 40. Besides, the “Local Anesthetic Sciatic Block” value in data set [4] is on record as “Positive”.

Regarding `COc1ccc2c(c1)CC(C)N(CCc1ccccc1)CC2` (stereo not shown) [Example 36, 8-Methoxy-2-methyl-3-phenethyl-1,2,4,5-tetrahydro-3H,3-benzazepine hydrochloride], the “Narcotic Antagonism” value in data set [1] is “Negative”. For the same molecule, in data set [2], the LD50 stood at 60 mg/kg and the MTD was found to be 10 mg/kg. Further, the “MST (mouse tail stimulation)” value in data set [3] is listed as 10. Moreover, the “Local Anesthetic Sciatic Block” value in data set [4] is recorded as “Insoluble”.

For the molecule `C=CCN1CCc2ccc(OC)cc2CC1C` (stereo not shown) [Example 38, 3-Allyl-8-methoxy-2-methyl-1,2,4,5-tetrahydro-3H,3-benzazepine hydrochloride], the “Narcotic Antagonism” value in data set [1] was “Positive”. In data set [2], the LD50 was 200 mg/kg and the MTD is 10 mg/kg. Further, the “MST (mouse tail stimulation)” value in data set [3] was more than 10.

Take `CC1Cc2cc(O)ccc2CCN1CC1CC1` (stereo not shown) [Example 41, 3-Cyclopropylmethyl-8-hydroxy-2-methyl-1,2,4,5-tetrahydro-3H,3-benzezepine hydrochloride]: the “Narcotic Antagonism” value in data set [1] is listed as “Negative”. In addition, in data set [2], the 50% lethal dose (LD50) is approximately 60 mg/kg and the MTD is approximately 3 mg/kg. The “MST (mouse tail stimulation)” value in data set [3] is more than 30. For the same molecule, the “Local Anesthetic Sciatic Block” value in data set [4] is on record as “Positive”.

In the case of `CC(C)=CCN1CCC2(C)c3cc(O)ccc3CC1C2C` (stereo not shown) [Pentazocine, reference compound], the LD50 in data set [7] (ip) is more than 600 mg/kg; in data set [7] (po), approximately 800 mg/kg. Further, the ED50 in data set [5] (ip) is 100 mg/kg; in data set [5] (po) it was more than 316 mg/kg; in data set [6] (po) it was 70 mg/kg. Further, the NOAEL in data set [8] (ip) and in data set [8] (po) was 316 mg/kg in each case.
